Assay results reported in ChEMBL document CHEMBL4725289, “Structure-activity relationship studies for the development of inhibitors of murine adipose triglyceride lipase (ATGL)” (Bioorg Med Chem, 2020).
Activity calls are given as the source filed them. The calls are words filed in the database; no cut-off is given here.

Assays:
[1] = target: T1, Patatin-like phospholipase domain-containing protein 2 (Mus musculus) (UniProt Q8BJ56); assay: Inhibition of murine ATGL at 200 uM relative to control
T1 sequence (whole entry): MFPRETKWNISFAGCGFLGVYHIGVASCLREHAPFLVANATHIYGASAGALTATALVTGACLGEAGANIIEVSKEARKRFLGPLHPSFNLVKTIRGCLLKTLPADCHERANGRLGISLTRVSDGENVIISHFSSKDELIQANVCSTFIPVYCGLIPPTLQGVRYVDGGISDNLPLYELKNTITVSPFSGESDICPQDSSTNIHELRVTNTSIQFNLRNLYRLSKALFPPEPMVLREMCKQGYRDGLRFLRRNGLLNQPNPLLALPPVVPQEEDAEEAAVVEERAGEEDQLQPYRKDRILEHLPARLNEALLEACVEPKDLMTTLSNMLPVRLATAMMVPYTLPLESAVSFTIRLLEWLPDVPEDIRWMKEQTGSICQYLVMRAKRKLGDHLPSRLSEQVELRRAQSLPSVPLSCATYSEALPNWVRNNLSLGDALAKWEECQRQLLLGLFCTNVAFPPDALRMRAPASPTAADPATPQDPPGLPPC

[2] = target: T2, Patatin-like phospholipase domain-containing protein 2 (Mus musculus, UniProt Q8BJ56); assay: Inhibition of murine ATGL
T2 sequence (Q8BJ56 whole entry): T1 sequence (whole entry)

[3] = Inhibition of isoproterenol-stimulated lipolysis in ATGL-ko mouse at 200 uM, ip after 2 hrs; assay type: functional
[4] = In vivo inhibition of ATGL in mouse assessed as decrease in plasma fatty acid release at 200 uM, ip measured up to 8 hrs; assay type: functional; conditions: time hrs <=8
[5] = target: T2, Patatin-like phospholipase domain-containing protein 2; assay: Inhibition of murine ATGL expressed in COS-7 cells; assay type: cell-based
[6] = target: T1, Patatin-like phospholipase domain-containing protein 2 (Mus musculus); assay: Inhibition of murine ATGL expressed in COS-7 cells at 200 uM relative to control; assay type: cell-based
Mus musculus = assay: In vivo inhibition of ATGL in 12 hrs fasted mouse assessed as reduction in circulating TG level at 200 uM administered via oral gavage in presence of poloxamer measured after 8 hrs; assay type: functional, organism-based
[7] = In vivo inhibition of ATGL in 12 hrs fasted mouse assessed as reduction in circulating fatty acid level at 200 uM administered via oral gavage measured after 8 hrs; assay type: functional
[8] = target: T1, Patatin-like phospholipase domain-containing protein 2 (Mus musculus); assay: Inhibition of recombinant murine ATGL expressed in Escherichia coli XL-1 lysates at 200 uM relative to control; assay type: subcellular
[9] = In vivo inhibition of ATGL in 12 hrs fasted mouse assessed as reduction in circulating triacylglycerol level at 200 uM administered via oral gavage measured after 8 hrs; assay type: functional
[10] = In vivo inhibition of ATGL in 12 hrs fasted mouse assessed as reduction in circulating glycerol level at 200 uM administered via oral gavage measured after 8 hrs; assay type: functional
[11] = In vivo inhibition of ATGL in ad libitum fed mouse assessed as reduction in circulating glycerol level at 200 uM administered via oral gavage measured after 8 hrs; assay type: functional
[12] = In vivo inhibition of ATGL in ad libitum fed mouse assessed as reduction in circulating fatty acid level at 200 uM administered via oral gavage measured after 8 hrs; assay type: functional
[13] = target: T2, Patatin-like phospholipase domain-containing protein 2; assay: Inhibition of recombinant murine ATGL expressed in Escherichia coli XL-1 lysates; assay type: subcellular

Row | inhibition [1] [%] | IC50 [2] [µM] | IC50 [5] [µM] | inhibition [6] [%] | SMILES | also measured
1 | 74 | 100 | – | – | CCCCOC(=O)c1nn(-c2ccc(OCC)cc2)cc1O | –
2 | 64 | 130 | – | – | CCOc1ccc(-n2cc(O)c(C(=O)OC)n2)cc1 | –
3 | 67 | 120 | – | – | CCOC(=O)c1nn(-c2ccc(OCC)cc2)cc1O | –
4 | 63 | 90 | – | – | CCOC(=O)c1nn(-c2ccc(OCC)cc2)cc1OC | –

The next lines start with the compound.

Row | SMILES | inhibition [1] [%] | IC50 [2] [µM] | IC50 [5] [µM] | inhibition [6] [%] | also measured
5 | CCOc1ccc(-n2cc(O)c(C(=O)O)n2)cc1 | 15 | > 200 | – | – | –
6 | CCOC(=O)c1ccn(-c2ccc(OCC)cc2)n1 | 89 | – | – | – | –
7 | CCOC(=O)c1cccc(-c2ccc(N(C)C)cc2)c1 | – | – | 40 | 87 | inhibition in vivo at 200 µM [3]: 60%; inhibition in vivo at 200 µM [4]: 40%
8 | CN(C)C(=O)Nc1cccc(-c2ccc(N(C)C)cc2)c1 | – | – | < 5 | 98 | inhibition (Mus musculus): Active; inhibition in vivo at 200 µM [7]: 27%; inhibition [8]: 99%; inhibition in vivo at 200 µM [9]: 37%; inhibition in vivo at 200 µM [10]: 26%; inhibition in vivo at 200 µM [11]: 23%; inhibition in vivo at 200 µM [12]: 27%
9 | CCOC(=O)c1cccc(-c2ccc(C(C)N(C)C)cc2)c1 (stereo not drawn) | – | – | 200 | 50 | inhibition [8]: 9%; IC50 [13]: 200 µM
